Paper PMC8161687, “Cytosine-5 methylation-directed construction of a Au nanoparticle-based nanosensor for simultaneous detection of multiple DNA methyltransferases at the single-molecule level” (Chemical Science, 2020)

Biological target: T1, CpG methyltransferase (M.SssI MTase) (Spiroplasma monobiae, UniProt P15840)
T1 construct: gene sssIM
Assay: coupled GlaI / RNase HII cleavage, Cy5 release from AuNP, single-molecule TIRF counting
Type: biochemical
Settings: 600 nM hairpin DNA HS1; 320 μM SAM; 100 U/mL M.SssI; NEBuffer 2; 37 °C, 2 h; coupled assay; free nucleoside added, covalent mechanism only cited

T1 sequence (P15840 whole entry): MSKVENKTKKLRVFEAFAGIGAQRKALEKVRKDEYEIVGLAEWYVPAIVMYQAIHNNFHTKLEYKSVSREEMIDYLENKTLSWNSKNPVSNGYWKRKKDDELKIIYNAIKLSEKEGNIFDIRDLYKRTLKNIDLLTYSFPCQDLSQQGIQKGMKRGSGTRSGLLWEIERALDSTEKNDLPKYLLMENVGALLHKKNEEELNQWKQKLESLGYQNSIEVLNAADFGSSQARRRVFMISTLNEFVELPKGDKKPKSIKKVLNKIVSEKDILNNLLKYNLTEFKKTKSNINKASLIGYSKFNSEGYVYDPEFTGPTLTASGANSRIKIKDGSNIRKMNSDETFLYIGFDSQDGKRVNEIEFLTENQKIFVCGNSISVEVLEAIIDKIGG

## Nc1ncn([C@H]2C[C@H](O)[C@@H](CO)O2)c(=O)n1 [decitabine]
  IC50: 640 nM
